For this assay, the system named is reductive glutathione in peritoneal macrophages. Nature of the assay: Reductive glutathione content of peritoneal macrophages by ACAS, advanced tumor-bearing mice (Example 4). Conditions: oral 1 mg/0.5 ml/h every day for 10 days from day 21 after COLON 26 implantation; control physiological saline. Format: in vivo, CDF1 mice. The method, then: Oxidative and reductive macrophages collected from peritoneal cavities of advanced tumor-bearing cachectic mice (COLON 26) and normal mice were determined. The COLON 26 transplantable tumor well known to induce a cancer cachexia was implanted subcutaneously in the back portion of CDF1 mice at a density of 5×10^5 cells/mouse. On day 21 after the tumor implantation, the cachectic condition was provided. Five milliliters of a physiological saline solution were intraperitoneally injected into the mice which became resistant to a therapeutic treatment. Peritoneal macrophages were collected, and suspended in a phenol red-free RPMI 1640 medium containing 10% fetal calf serum to a density of 3×10^5 cells/ml. One hundred microliters of the suspension were charged in a Lab-Tek Chamber Slide (#136439, supplied by Nunc), and incubated in 5% CO2 at 37° C. for 3 hours. After the nonadherent cells were removed, 200 μl of the above-mentioned medium free from serum were added thereto, and monochlorobimane (MCB) was added thereto in an amount of 10 μM. The reaction was conducted for 30 minutes, and the image analysis was conducted on the basis of the UV absorption using an ACAS device (supplied by Meridien).
The COLON 26 transplantable tumor was implanted subcutaneously in the back portion of CDF1 mice at a density of 5×10^5 cells/mouse. […]

In the case of `CCOC(=O)CNC(=O)[C@H](CS)NC(=O)CC[C@H](N)C(=O)O` [GSH-OEt, glutathione monoethyl ester], the “amount of oxidative macrophage (reductive glutathione content decreased) in comparison with control mice” value is on record as “relatively decreased”.

For the origin of these results see patent US7378387B2, “Method of suppressing immune response by reducing intracellular content of glutathione in macrophages and monocytes” (Ajinomoto Co., Inc., priority 1997, dated 2008).
